Results taken from the CheMixHub ionic liquid set.

Assay: xn = mol fraction of the nth substance listed

CC[n+]1ccn(C)c1.F[P-](F)(F)(F)(F)F + CC(C)[C@H](N)C(=O)O + O
100 kPa
Details	electrical conductivity, 298.15 K [S/m]	electrical conductivity, 303.15 K [S/m]	electrical conductivity, 308.15 K [S/m]	viscosity, 298.15 K [mPa·s]	viscosity, 303.15 K [mPa·s]	viscosity, 308.15 K [mPa·s]
x2 = 0.0001802, x1 = 1.802e-05	0.0115	0.0132	0.0158	0.924	0.855	0.783
x2 = 0.0001803, x1 = 5.405e-05	0.0309	0.0338	0.0369	0.939	0.861	0.788
x2 = 0.0001804, x1 = 9.008e-05	0.0452	0.0507	0.0552	0.954	0.865	0.792
x2 = 0.0004522, x1 = 1.801e-05	0.0121	0.0136	0.0156	0.93	0.862	0.79
x2 = 0.0004524, x1 = 5.403e-05	0.0301	0.0329	0.0366	0.946	0.868	0.795
x2 = 0.0004526, x1 = 9.005e-05	0.046	0.0507	0.0551	0.963	0.876	0.801
x2 = 0.0007258, x1 = 1.801e-05	0.0124	0.0141	0.016	0.936	0.869	0.797
x2 = 0.0007262, x1 = 5.402e-05	0.0308	0.0336	0.0361	0.953	0.875	0.802
x2 = 0.0007265, x1 = 9.003e-05	0.0494	0.0548	0.0593	0.97	0.884	0.808
x2 = 0.0009976, x1 = 1.8e-05	0.0136	0.015	0.0177	0.942	0.876	0.803
x2 = 0.000998, x1 = 5.4e-05	0.0304	0.0333	0.0354	0.96	0.883	0.811
x2 = 0.0009985, x1 = 9e-05	0.0457	0.051	0.0553	0.979	0.893	0.818
x2 = 0.001273, x1 = 1.8e-05	0.0147	0.0167	0.0199	0.948	0.882	0.811
x2 = 0.001273, x1 = 5.399e-05	0.0323	0.0341	0.0377	0.969	0.89	0.819
x2 = 0.001274, x1 = 8.998e-05	0.0487	0.0538	0.0594	0.988	0.899	0.826
x2 = 0.001546, x1 = 1.799e-05	0.0161	0.0182	0.0218	0.954	0.888	0.818
x2 = 0.001547, x1 = 5.397e-05	0.0327	0.0343	0.0383	0.976	0.897	0.827
x2 = 0.001547, x1 = 8.995e-05	0.0455	0.0512	0.0549	0.996	0.908	0.833

CCCCCC[n+]1ccn(C)c1.O=[N+]([O-])[O-] + CCC(C)O
viscosity [mPa·s], 100 kPa
Details	293.15 K	298.15 K	303.15 K	308.15 K	313.15 K	318.15 K	323.15 K
x1 = 0.0819	7.63	5.55	4.2	3.3	2.59	2.14	1.79
x1 = 0.1591	14.93	10.31	7.2	5.2	3.92	3.18	2.52
x1 = 0.2414	28.5	19.3	13.16	9.1	6.75	5.3	3.9
x1 = 0.3517	54.2	37.9	27.6	18	13.16	10.35	7.8
x1 = 0.4412	87.8	63.7	46.7	30.6	21.5	16.77	12.8
x1 = 0.5591	156.2	117.1	84.5	56.4	38	29.4	23
x1 = 0.6518	227	172.4	117.1	81.3	58.7	43	33.6
x1 = 0.7392	322	238	158.7	113.3	84.5	60.9	47.3
x1 = 0.8516	475	342	230	168.2	124.1	91.6	71.1
x1 = 0.9395	641	451	304	218	159.2	119.8	94.4
x1 = 1	804	545	369	258	186	140.2	110.9

CCCC[n+]1ccn(C)c1.O=[N+]([O-])[O-] + CCC(C)O
100 kPa
Details	viscosity [mPa·s]
293.15 K, x1 = 0.0813	5.4
293.15 K, x1 = 0.1595	7.3
298.15 K, x1 = 0.1595	6.1
298.15 K, x1 = 0.2402	8.4
298.15 K, x1 = 0.7398	52
298.15 K, x1 = 0.8502	79
303.15 K, x1 = 0.1595	5.3
303.15 K, x1 = 0.2402	7.2
303.15 K, x1 = 0.8502	62
308.15 K, x1 = 0.2402	6.3
308.15 K, x1 = 0.35	9.4
308.15 K, x1 = 0.9399	71
308.15 K, x1 = 1	97
313.15 K, x1 = 0.2402	5.5
313.15 K, x1 = 0.35	8.2
313.15 K, x1 = 0.9399	57
313.15 K, x1 = 1	75
318.15 K, x1 = 0.35	7.2
318.15 K, x1 = 0.4403	9.7
318.15 K, x1 = 1	56
323.15 K, x1 = 0.35	6.3
323.15 K, x1 = 0.4403	8.5

CCOS(=O)(=O)[O-].CC[n+]1ccn(C)c1 + CCC(C)O
101 kPa
Details	viscosity [mPa·s]
298.15 K, x1 = 0.2027	6.91
298.15 K, x1 = 0.6944	39.6
298.15 K, x1 = 0.7957	54.2
303.15 K, x1 = 0.2027	6.81
303.15 K, x1 = 0.4906	17.37
303.15 K, x1 = 0.8916	57.3
308.15 K, x1 = 0.3936	9.98
308.15 K, x1 = 0.8916	46.8
313.15 K, x1 = 0.2027	4.59
313.15 K, x1 = 0.3936	9.48
313.15 K, x1 = 0.5916	17.67
313.15 K, x1 = 1	49.4
318.15 K, x1 = 0.2027	4.03
323.15 K, x1 = 0.2937	5
